# In patent publication US20220378706A1, “PHARMACEUTICAL COMPOSITION COMPRISING PDE9 INHIBITOR” (Eisai R&D Management Co., Ltd., priority 2017, published 2022):
# Where two headings read alike, the source gives them in different places.
# Test: Single dose clinical study: plasma Compound A pharmacokinetics
# Assay type: in vivo, human
# Conditions: human, plasma
# Protocol: This was a single center, single dose, randomized, double blind, placebo controlled study in healthy subjects. It consisted of 4 parts: Parts A, B, C, and D. Each of the four study parts had 2 phases: Prerandomization Phase and Randomization Phase. The Prerandomization Phase lasted up to 30 days and consisted of a Screening Period and a Baseline Period, during which each subject's study eligibility was determined and baseline assessments were performed.
# In Part A, there were 8 sequential cohorts of healthy adult subjects (18-50 years of age). Subjects were randomly assigned to Compound A or placebo in a ratio of 6:2, respectively. Subjects in the Compound A cohorts were treated with single ascending doses of 10, 25, 50, 100, 200, 400, 800, or 1200 mg.
# In Part B, there were 4 cohorts of healthy adult subjects (18-50 years of age). There were 8 subjects in Cohort 1, with 6 subjects randomly assigned to receive single doses of Compound A (400 mg) and 2 subjects randomly assigned to receive placebo. There were 7 subjects in Cohort 2 and Cohort 3, each with 6 subjects randomly assigned to receive single doses of Compound A (100 and 200 mg, respectively) and 1 subject randomly assigned to receive placebo. The dose of 100 mg selected in Cohort 2 was based on preliminary analysis of Cohort 1 data; this dose was predicted from PK/PD modeling to achieve a sustained CSF cGMP increase from baseline of approximately 200% when administered to steady state, and thereby provided a potentially therapeutic dose for further evaluation in future studies. There were 7 subjects in Cohort 4, with 6 subjects randomly assigned to receive a single dose of Compound A (50 mg [n=3] or 75 mg [n=3]) and 1 subject randomly assigned to receive placebo. The doses for Cohorts 3 and 4 were selected based on PK/PD modeling of the data in Cohorts 1 and 2.
# Subjects in Cohort 2 who had received Compound A 100 mg or placebo under fasted conditions (1st Treatment Period) also participated in an evaluation of food effect on the PK of Compound A (2nd Treatment Period). After a washout period of at least 13 days (or 5 half-lives of Compound A, whichever was longer), subjects were admitted to the clinic for baseline assessments (2nd Baseline Period) and then received a single dose of the same treatment (Compound A 100 mg or placebo) after consuming a high fat and high calorie meal over 30 minutes. Blood PK samples were collected at prespecified time points. Safety evaluations were also assessed. CSF was not collected for PD evaluation during the 2nd Treatment Period. A Follow Up Visit occurred on Day 10 of Treatment Period 2.
# In Part C, there was 1 cohort of 8 healthy elderly subjects (65 to 85 years of age) randomly assigned to receive a single dose of Compound A 100 mg or placebo in a ratio of 6:2, respectively.
# In Part D, 3 cohorts of healthy adult Japanese subjects were randomized in parallel. There were 7 subjects in each cohort and subjects were randomly assigned to receive single doses of Compound A (25, 100, or 400 mg) or placebo in a ratio of 6:1, respectively.
# Blood samples for determination of plasma Compound A concentrations were collected from predose to 216 hours postdose. On Day 1, blood PK samples were collected at predose and postdose 0.5 (30 minutes), 1, 1.5, 2, 3, 4, 5, 6, 8, 12, and 18 hours. Thereafter, samples were collected on Day 2 (24 and 36 hours postdose), Day 3 (48 hours postdose), Day 4 (72 hours postdose), Day 5 (96 hours postdose), Day 6 (120 hours postdose), Day 7 (144 hours postdose), and Day 10 (216 hours postdose).
# Blood samples for determination of plasma Compound A concentrations were collected from predose to 216 hours postdose. For all cohorts, blood PK samples were collected on Day 1 at predose and postdose at 0.5 (30 minutes), 1, 1.5, 2, 3, 4, 5, 6, 8, 10, 12, and 18 hours. […]
compound,measurement,setting,value
"COc1ncc(C)c(-c2ccc3c(c2)[nH]c(=O)c2cnn([C@H]4CCOC4)c23)c1C [Compound A, (S)-7-(2-methoxy-3,5-dimethylpyridin-4-yl)-1-(tetrahydrofuran-3-yl)-1H-pyrazolo[4,3-c]quin olin-4(5H)-one]",Cmax,"oral, 400 mg, non-Japanese, 400 mg, with weight as covariate, read-out: Cmax Geometric LS Means Reference",0.833 µg/mL
same,AUC,"oral, 400 mg, non-Japanese, 400 mg, without weight as covariate, read-out: AUC(O-inf) Geometric LS Means Reference",35.8 µg·h/mL
same,Cmax,"oral, 400 mg, non-Japanese, 400 mg, without weight as covariate, read-out: Cmax Geometric LS Means Reference",0.827 µg/mL
same,half-life,"oral, single doses of 10 to 1200 mg, read-out: Mean t1/2 across all doses",26.8 to 33.6 h
same,Tmax,"oral, single doses of 10 to 1200 mg, read-out: median plasma tmax across all doses",2 to 4 h
same,AUC(0-t),"po, 10 mg, healthy adults (Parts A,B), single oral 10 mg, fasted, read-out: AUC(0-24 h) GM",0.719 µg·h/mL
same,AUC(0-t),"po, 10 mg, healthy adults (Parts A,B), single oral 10 mg, fasted, read-out: AUC(0-30 h) GM",0.863 µg·h/mL
same,AUC(0-t),"po, 10 mg, healthy adults (Parts A,B), single oral 10 mg, fasted, read-out: AUC(0-72 h) GM",1.43 µg·h/mL
same,AUC(0-inf),"po, 10 mg, healthy adults (Parts A,B), single oral 10 mg, fasted, read-out: AUC(0-inf) GM",1.84 µg·h/mL
same,AUC(0-t),"po, 10 mg, healthy adults (Parts A,B), single oral 10 mg, fasted, read-out: AUC(0-t) GM",1.7 µg·h/mL
same,Cmax,"po, 10 mg, healthy adults (Parts A,B), single oral 10 mg, fasted, read-out: Cmax GM",0.0602 µg/mL
same,Vd/F,"po, 10 mg, healthy adults (Parts A,B), single oral 10 mg, fasted, read-out: Vz/F GM",255 L
same,half-life,"po, 10 mg, healthy adults (Parts A,B), single oral 10 mg, fasted, read-out: t1/2 Mean (converted)",33.6 h
same,Tmax,"po, 10 mg, healthy adults (Parts A,B), single oral 10 mg, fasted, read-out: tmax Median",2.27 h
same,AUC(0-inf),"po, 25 mg, Japanese Subjects (Part D), single oral 25 mg, read-out: AUC(0-inf) GM",4.58 µg·h/mL
same,Cmax,"po, 25 mg, Japanese Subjects (Part D), single oral 25 mg, read-out: Cmax GM (% CV)",0.212 µg/mL
same,Vd/F,"po, 25 mg, Japanese Subjects (Part D), single oral 25 mg, read-out: Vz/F GM (% CV)",165 L
same,half-life,"po, 25 mg, Japanese Subjects (Part D), single oral 25 mg, read-out: t1/2 Mean (SD) (converted)",21.5 h
same,Tmax,"po, 25 mg, Japanese Subjects (Part D), single oral 25 mg, read-out: tmax Median",2.08 h
same,AUC(0-inf),"po, 25 mg, Non-Japanese Subjects (Parts A,B), single oral 25 mg, read-out: AUC(0-inf) GM",4.34 µg·h/mL
same,Cmax,"po, 25 mg, Non-Japanese Subjects (Parts A,B), single oral 25 mg, read-out: Cmax GM (% CV)",0.152 µg/mL
same,Vd/F,"po, 25 mg, Non-Japanese Subjects (Parts A,B), single oral 25 mg, read-out: Vz/F GM (% CV)",216 L
same,half-life,"po, 25 mg, Non-Japanese Subjects (Parts A,B), single oral 25 mg, read-out: t1/2 Mean (SD) (converted)",26.8 h
same,Tmax,"po, 25 mg, Non-Japanese Subjects (Parts A,B), single oral 25 mg, read-out: tmax Median",2.65 h
same,AUC(0-t),"po, 25 mg, healthy adults (Parts A,B), single oral 25 mg, fasted, read-out: AUC(0-24 h) GM",1.85 µg·h/mL
same,AUC(0-t),"po, 25 mg, healthy adults (Parts A,B), single oral 25 mg, fasted, read-out: AUC(0-30 h) GM",2.2 µg·h/mL
same,AUC(0-t),"po, 25 mg, healthy adults (Parts A,B), single oral 25 mg, fasted, read-out: AUC(0-72 h) GM",3.57 µg·h/mL
same,AUC(0-inf),"po, 25 mg, healthy adults (Parts A,B), single oral 25 mg, fasted, read-out: AUC(0-inf) GM",4.34 µg·h/mL
same,AUC(0-t),"po, 25 mg, healthy adults (Parts A,B), single oral 25 mg, fasted, read-out: AUC(0-t) GM",4.2 µg·h/mL
same,Cmax,"po, 25 mg, healthy adults (Parts A,B), single oral 25 mg, fasted, read-out: Cmax GM",0.152 µg/mL
same,Vd/F,"po, 25 mg, healthy adults (Parts A,B), single oral 25 mg, fasted, read-out: Vz/F GM",216 L
same,half-life,"po, 25 mg, healthy adults (Parts A,B), single oral 25 mg, fasted, read-out: t1/2 Mean (converted)",26.8 h
same,Tmax,"po, 25 mg, healthy adults (Parts A,B), single oral 25 mg, fasted, read-out: tmax Median",2.65 h
same,AUC(0-t),"po, 50 mg, healthy adults (Parts A,B), single oral 50 mg, fasted, read-out: AUC(0-24 h) GM",3.37 µg·h/mL
same,AUC(0-t),"po, 50 mg, healthy adults (Parts A,B), single oral 50 mg, fasted, read-out: AUC(0-30 h) GM",4.01 µg·h/mL
same,AUC(0-t),"po, 50 mg, healthy adults (Parts A,B), single oral 50 mg, fasted, read-out: AUC(0-72 h) GM",6.49 µg·h/mL
same,AUC(0-inf),"po, 50 mg, healthy adults (Parts A,B), single oral 50 mg, fasted, read-out: AUC(0-inf) GM",7.9 µg·h/mL
same,AUC(0-t),"po, 50 mg, healthy adults (Parts A,B), single oral 50 mg, fasted, read-out: AUC(0-t) GM",7.72 µg·h/mL
same,Cmax,"po, 50 mg, healthy adults (Parts A,B), single oral 50 mg, fasted, read-out: Cmax GM",0.225 µg/mL
same,Vd/F,"po, 50 mg, healthy adults (Parts A,B), single oral 50 mg, fasted, read-out: Vz/F GM",233 L
same,half-life,"po, 50 mg, healthy adults (Parts A,B), single oral 50 mg, fasted, read-out: t1/2 Mean (converted)",26.9 h
same,Tmax,"po, 50 mg, healthy adults (Parts A,B), single oral 50 mg, fasted, read-out: tmax Median",4 h
same,AUC(0-t),"po, 75 mg, healthy adults (Parts A,B), single oral 75 mg, fasted, read-out: AUC(0-24 h) GM",3.65 µg·h/mL
same,AUC(0-t),"po, 75 mg, healthy adults (Parts A,B), single oral 75 mg, fasted, read-out: AUC(0-30 h) GM",4.46 µg·h/mL
same,AUC(0-t),"po, 75 mg, healthy adults (Parts A,B), single oral 75 mg, fasted, read-out: AUC(0-72 h) GM",7.88 µg·h/mL
same,AUC(0-inf),"po, 75 mg, healthy adults (Parts A,B), single oral 75 mg, fasted, read-out: AUC(0-inf) GM",9.88 µg·h/mL
same,AUC(0-t),"po, 75 mg, healthy adults (Parts A,B), single oral 75 mg, fasted, read-out: AUC(0-t) GM",9.52 µg·h/mL
same,Cmax,"po, 75 mg, healthy adults (Parts A,B), single oral 75 mg, fasted, read-out: Cmax GM",0.222 µg/mL
same,Vd/F,"po, 75 mg, healthy adults (Parts A,B), single oral 75 mg, fasted, read-out: Vz/F GM",308 L
same,half-life,"po, 75 mg, healthy adults (Parts A,B), single oral 75 mg, fasted, read-out: t1/2 Mean (converted)",28.9 h
same,Tmax,"po, 75 mg, healthy adults (Parts A,B), single oral 75 mg, fasted, read-out: tmax Median",3 h
same,AUC(0-inf),"po, 100 mg, Elderly, single oral 100 mg, read-out: AUC(0-inf) Geometric LS Means Test",21.3 µg·h/mL
same,Cmax,"po, 100 mg, Elderly, single oral 100 mg, read-out: Cmax Geometric LS Means Test",0.543 µg/mL
same,AUC(0-inf),"po, 100 mg, Younger Adults (Parts A,B), single oral 100 mg, read-out: AUC(0-inf) Geometric LS Means Reference",15 µg·h/mL
same,Cmax,"po, 100 mg, Younger Adults (Parts A,B), single oral 100 mg, read-out: Cmax Geometric LS Means Reference",0.373 µg/mL
same,AUC(0-inf),"po, 100 mg, Japanese Subjects (Part D), single oral 100 mg, read-out: AUC(0-inf) GM",14.2 µg·h/mL
